Where no end group is shown, it is not given here.
Assays:
[1] = system: human Müller cells; assay type: cell-based
Text: (§1) Peptide consisted of the TRAF2,3 binding site of CD40 that was made cell permeable by linking them to the TAT47-57 cell penetrating peptide. Peptides were synthesized using D-amino acids following reverse amino acid sequence (ri format). The sequences for the CD40-TRAF2,3 blocking peptide was —NH2-rrrqrrkkrgy ghlteqvhaatn-OH (SEQ ID NO: 49). The TAT47-57 sequence is underlined. The peptide contains a proline (p) to histidine (h) substitution (shown in italics) that enhances affinity to TRAF2. Control (scrambled) peptide consisted of NH2-rrrqrrkkrgy ntqalahtgevh-OH (SEQ ID NO: 50). The blocking peptide was also synthesized with Alexa Fluor 488 conjugated via maleimide coupling to an additional Cys in the N terminus. Peptides were manufactured by Biopeptide Co. (San Diego, CA) and were low in endotoxin and >98% pure by HPLC. Peptides were used at 1 μM in vitro experiments and 1 μg for in vivo studies unless otherwise stated. Peptides were not toxic to human Müller and retinal endothelial cells as assessed by alamarBlue cell viability assay (Invitrogen Corporation).
(§2) Primary human retinal endothelial cells were obtained as described (9) and cultured in complete medium supplemented with endothelial cell growth supplement from bovine pituitary (15 μg/ml; Sigma Chemical, St Louis, MO) and insulin/transferrin/selenium (Sigma Chemical). Cell identity was confirmed by incorporation of acetylated low-density lipoprotein (>90%). Endothelial cells were used between passages 3 to 6. The human Müller cell line MIO M1 (gift from Dr. Gloria Limb; University College London, UK; >95% vimentin^+, CRALBP^+ and GFAP^−) was also used. Endothelial cells were incubated with multimeric human CD154 to induce CD40 stimulation (obtained from Dr. Richard Kornbluth, Multimeric Biotherapeutics Inc., La Jolla, CA) or with a non-functional CD154 mutant (T147N) as control.
(§3) Peptides were tested as described using the mouse endothelial cells mHEVc that expresses a chimera of the extracellular domain of human CD40 and intracytoplasmic domain of mouse CD40 (hmCD40) with either a mutation that prevents recruitment of TRAF2,3 (hmCD40 ΔT2,3) or TRAF6 (hmCD40 ΔT6). These cells were transfected with pGL4.32luc2P/NF-κB-RE/Hygro vector (Promega Corporation, Madison, WI) encoding an NF-κB response element that drives the luciferase reporter gene luc2P (Photinus pyralis). Cells were pre-incubated with peptides for 3 hr. followed by stimulation with human CD154. Luciferase activity was assessed using a Steady-Glo luciferase assay system (Promega Corporation) and a luminometer. The effects of peptides on cell viability were examined using alamarBlue cell viability assay.

[2] = system: human retinal endothelial cells; assay type: cell-based
Text: as §1, §2, §3

[3] = system: retinas subjected to I/R; assay: Model of retinal ischemia/reperfusion (I/R), intravitreal peptide; assay type: in vivo, B6 mice
Experimental: FIGS. 20(A-C) illustrate images and graphs showing ri CD40-TRAF2,3 blocking peptide protects against loss of ganglion cells and leukocyte infiltration in retinas subjected to I/R. One eye from each B6 and CD40^−/− mouse was subjected to I/R. Contralateral non-ischemic eye was used as control. Eyes subjected to I/R in B6 mice were treated intravitreously with or without ri control peptide, ri CD40-TRAF2,3 blocking peptide (both 1 μg) 30 min prior to increase in IOP. Eyes were collected 2 d after I/R. A marked decrease in the number of ganglion cells is observed in ischemic eyes from B6 treated with ri control peptide or vehicle (original magnification ×400). […] Arrowhead plus asterix identifies a PMN magnified in the inset (original magnification ×600). Scale bar, 50 μm. Number of ganglion cells per mm. Number of infiltrating leukocytes in the inner retina and vitreous per section. GCL=Ganglion cell layer; IPL=Inner plexiform layer; INL=Inner nuclear layer. OPL=Outer plexiform layer; ONL=Outer nuclear layer. Data shown represent Mean±SEM (9 mice per group). *P<0.05; **P<0.01; […].
FIG. 21 illustrates graphs showing ri CD40-TRAF2,3 blocking peptide impairs upregulation of NOS2 and COX-2 in retinas subjected to I/R. One eye of each mouse was treated as above and subjected to I/R. Eyes were collected after 2 d. mRNA levels of NOS2 and COX-2 were assessed by quantitative real time PCR. One non-ischemic eye from a B6 mouse was given an arbitrary value of 1 and data are expressed as fold-increase compared to this animal. Data shown represent Mean±SEM (7-9 mice per group). ***P<0.001.
FIGS. 22(A-B) illustrate graphs and images showing ri CD40-TRAF2,3 blocking peptide impairs upregulation of ICAM-1 and KC/CXCL1 in retinal endothelial cells from retinas subjected to I/R. One eye of each mouse was subjected to I/R. Eyes were collected after 2 d. mRNA levels of ICAM-1 and KC/CXCL1 were assessed by quantitative real time PCR. One non-ischemic eye from a B6 mouse was given an arbitrary value of 1 and data are expressed as fold-increase compared to this animal. Data shown represent Mean±SEM (7-9 mice per group). ***P<0.001. Retinal sections were incubated with Tomato Lectin (labels endothelial cells) plus either anti-ICAM-1 or anti-KC/CXCL1 Ab. Original magnification ×600. GCL=Ganglion cell layer; IPL=Inner plexiform layer; INL=Inner nuclear layer. Scale bar, 10 μm. 6 mice/group.
FIG. 23 illustrates images showing ri CD40-TRAF2,3 blocking peptide impairs NOS2 and KC/CXCL1 upregulation in Müller cells from retinas subjected to I/R. Eyes from B6 mice were treated with control peptide or CD40-TRAF2,3 blocking peptide, subjected to I/R and collected after 2 d. Retinal sections were incubated with anti-Vimentin Ab (labels Müller cells) plus either anti-NOS2 or anti-KC/CXCL1 Ab. Protein expression at the level of Müller cells stalks. […]. Original magnification ×600. Scale bar, 10 μm. 6 mice/group.
FIGS. 24(A-D) illustrate images and graphs showing ri CD40-TRAF2,3 blocking peptide protects against loss of ganglion neurons and inflammation when administered after retinal I/R. One eye from each B6 mouse was subjected to I/R. Non-ischemic eyes were used as controls. Eyes that were subjected to I/R received either ri control peptide or ri CD40-TRAF2,3 blocking peptide 90 min after increase in IOP. Eyes were collected 2 d after I/R. Administration of the blocking peptide protects against ganglion cell loss and infiltration by leukocytes (arrowhead). Original magnification ×400. Scale bar, 50 μm. Number of ganglion cells per mm. Number of leukocytes in the inner retina and vitreous per section. mRNA levels of ICAM-1, KC/CXCL1, NOS2 and COX-2 were assessed by quantitative real time PCR as above. Data shown represent Mean±SEM (7-9 mice per group). **P<0.01; ***P<0.001. GCL=Ganglion cell layer; IPL=Inner plexiform layer; INL=Inner nuclear layer. […]

[4] = system: HAEC; assay: Viability of HAEC incubated with cell-permeable peptides; assay type: cell-based, human; details: first generation cell-permeable peptides
Text: We used peptides that consisted of the amino acid sequence of the TRAF2,3 or the TRAF6 binding sites of CD40 fused a protein transduction domain derived from the Kaposi fibroblast growth factor to make the peptides cell-permeable, (SEQ ID NO: 1 or SEQ ID NO: 2, respectively). […] Thus, the results obtained with the blocking peptides were similar to those obtained with CD40 mutants.

[5] = system: Human aortic endothelial cells (HAEC); assay: CD154-induced VCAM-1 upregulation in HAEC transduced with wild-type CD40 (FACS); assay type: cell-based; details: second generation peptides (Tat MTD), 100 nM, p<0.02
Experimental: FIGS. 2A-D are a series of graphs showing the induction of VCAM-1 (FIG. 2A), ICAM-1 (FIG. 2B), MCP-1 (FIG. 2C), and tissue factor (FIG. 2D) expression by TRAFs. Human aortic endothelial cells (HAEC) transduced with empty EGFP-encoding retroviral vector (MIEG3) or retroviral vector that encoded either wild type CD40 (wt CD40), CD40 with a mutation that prevents recruitment of TRAF2 and 3 (ΔT2, 3), recruitment of TRAF6 (ΔT6), or recruitment of TRAF2, 3, and 6 (ΔT2, 3, and 6) were incubated with or without CD154. VCAM-1, ICAM-1, and tissue factor were assessed by FACS on transduced (EGFP+) cells. cMFI=corrected Mean Fluorescence Intensity. MCP-1 was measured by ELISA (N=3).
FIGS. 3A-B are a series of graphs showing the effects cell-permeable polypeptides that block CD40-TRAF interactions (T2,3BP and T6BP) on upregulation of VCAM-1 and MCP-1 in HAEC. HAEC were transduced with retroviral vectors encoding wild-type CD40 and incubated with or without CD154. HAEC were pre-treated with either control, TRAF2,3 blocking peptide (T2,3BP), or TRAF6 blocking peptide (T6BP) (200 μM) (N=2).
FIG. 5 is a graph showing the effects of second generation TRAF2, 3 blocking peptide on VCAM-1 upregulation in HAEC.
CD40 activates a variety of signaling cascades. […] Next, we determined if preventing the function of the TRAF2,3 binding site affects adhesion molecule upregulation. […]

[6] = 1 μg intravitreal prior to I/R, 2 d, real time PCR
[7] = prior to I/R, 2 d, immunohistochemistry

CC(C)C[C@@H](NC(=O)[C@@H](C)NC(=O)[C@@H](CCC(N)=O)NC(=O)[C@H](NC(=O)[C@@H](CC(N)=O)NC(=O)[C@@H](Cc1ccc(O)cc1)NC(=O)CNC(=O)[C@@H](CCCNC(=N)N)NC(=O)[C@@H](CCCCN)NC(=O)[C@@H](CCCCN)NC(=O)[C@@H](CCCNC(=N)N)NC(=O)[C@@H](CCCNC(=N)N)NC(=O)[C@@H](CCC(N)=O)NC(=O)[C@@H](CCCNC(=N)N)NC(=O)[C@@H](CCCNC(=N)N)NC(=O)[C@H](N)CCCNC(=N)N)[C@H](C)O)C(=O)N[C@H](C)C(=O)N[C@H](Cc1c[nH]cn1)C(=O)N[C@@H](C(=O)NCC(=O)N[C@H](CCC(=O)O)C(=O)N[C@@H](C(=O)N[C@H](Cc1c[nH]cn1)C(=O)O)C(C)C)[C@H](C)O [ri control peptide, NH2-rrrqrrkkrgy ntqalahtgevh-OH, reference compound]
toxicity (alamarBlue cell viability assay) [1]: not toxic | toxicity (alamarBlue cell viability assay) [2]: not toxic | COX-2 mRNA levels in retina [3, 6]: upregulated | ICAM-1 mRNA levels in retina [3, 6]: marked upregulation | KC/CXCL1 mRNA levels in retina [3, 6]: marked upregulation | NOS2 mRNA levels in retina [3, 6]: upregulated | PMN infiltration in the inner retina and vitreous ([3]; 1 μg intravitreal prior to I/R, 2 d after I/R): developed PMN infiltration | loss of ganglion cells ([3]; 1 μg intravitreal prior to I/R, eyes collected 2 d after I/R): not altered | expression of ICAM-1 in retinal endothelial cells [3, 7]: increased | expression of KC/CXCL1 in Müller cells [3, 7]: increased KC/CXCL1 expression | expression of KC/CXCL1 in retinal endothelial cells [3, 7]: increased | expression of NOS2 in Müller cells [3, 7]: NOS2 upregulation

AAVALLPAVLLALLAPAPHPKQEPQEIDFPDD [SEQ ID NO: 2, AAVALLPAVLLALLAP APHPKQEPQEIDFPDD]
viability of HAEC [4]: did not affect viability

AAVALLPAVLLALLAPSNTAAPVQETLHG [SEQ ID NO: 1, AAVALLPAVLLALLAP SNTAAPVQETLHG]
viability of HAEC [4]: did not affect viability

KQEPQEIDFPDD YGRKKRRQRRR [SEQ ID NO: 18]
inhibition of upregulation of VCAM-1 triggered by CD154 [5]: 60%

NTAAHVQETLHG YGRKKRRQRRR [SEQ ID NO: 13]
inhibition of upregulation of VCAM-1 triggered by CD154 [5]: 60%
